Experimental data: ChEMBL document CHEMBL5291721, “A preclinical secondary pharmacology resource illuminates target-adverse drug reaction associations of marketed drugs” (Nat Commun, 2023)

Tests used:
[1] = biological target: T1, Adenosine receptor A1 (Homo sapiens, UniProt P30542)
T1 sequence (P30542 whole entry): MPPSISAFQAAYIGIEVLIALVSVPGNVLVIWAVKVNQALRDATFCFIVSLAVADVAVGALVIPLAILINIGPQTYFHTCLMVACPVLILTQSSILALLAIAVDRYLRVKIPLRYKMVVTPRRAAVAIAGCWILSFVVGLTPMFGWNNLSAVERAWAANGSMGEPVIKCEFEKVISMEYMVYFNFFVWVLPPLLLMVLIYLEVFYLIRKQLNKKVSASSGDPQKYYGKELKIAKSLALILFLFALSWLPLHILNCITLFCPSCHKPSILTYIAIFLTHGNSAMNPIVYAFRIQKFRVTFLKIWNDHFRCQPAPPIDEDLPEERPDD

[2] = biological target: T2, Adenosine receptor A3 (Homo sapiens, UniProt P0DMS8)
T2 sequence (P0DMS8 whole entry): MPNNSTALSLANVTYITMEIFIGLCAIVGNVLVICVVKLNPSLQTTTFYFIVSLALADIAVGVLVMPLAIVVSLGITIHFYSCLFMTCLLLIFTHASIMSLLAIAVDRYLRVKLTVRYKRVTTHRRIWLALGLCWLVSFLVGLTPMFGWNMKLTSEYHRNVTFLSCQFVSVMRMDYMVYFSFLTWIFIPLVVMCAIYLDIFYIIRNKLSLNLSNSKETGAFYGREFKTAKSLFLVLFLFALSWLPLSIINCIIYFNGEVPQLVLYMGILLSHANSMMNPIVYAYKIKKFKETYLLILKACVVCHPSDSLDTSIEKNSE

[3] = biological target: T3, Alpha-2C adrenergic receptor (Homo sapiens, UniProt P18825); type: functional
T3 sequence (P18825 whole entry): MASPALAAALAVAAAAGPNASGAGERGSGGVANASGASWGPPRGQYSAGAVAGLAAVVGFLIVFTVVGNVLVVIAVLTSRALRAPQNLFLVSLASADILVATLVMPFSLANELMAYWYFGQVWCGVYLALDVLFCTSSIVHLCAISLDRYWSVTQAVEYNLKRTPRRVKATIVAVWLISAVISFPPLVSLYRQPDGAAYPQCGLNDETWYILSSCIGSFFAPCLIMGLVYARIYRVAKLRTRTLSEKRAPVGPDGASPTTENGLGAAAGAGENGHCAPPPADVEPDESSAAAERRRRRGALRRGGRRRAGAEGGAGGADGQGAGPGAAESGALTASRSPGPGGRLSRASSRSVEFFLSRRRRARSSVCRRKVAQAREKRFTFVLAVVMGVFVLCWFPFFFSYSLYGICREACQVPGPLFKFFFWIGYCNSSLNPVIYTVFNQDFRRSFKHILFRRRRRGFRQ

[4] = biological target: T4, Type-1 angiotensin II receptor (Homo sapiens, UniProt P30556)
T4 sequence (P30556 whole entry): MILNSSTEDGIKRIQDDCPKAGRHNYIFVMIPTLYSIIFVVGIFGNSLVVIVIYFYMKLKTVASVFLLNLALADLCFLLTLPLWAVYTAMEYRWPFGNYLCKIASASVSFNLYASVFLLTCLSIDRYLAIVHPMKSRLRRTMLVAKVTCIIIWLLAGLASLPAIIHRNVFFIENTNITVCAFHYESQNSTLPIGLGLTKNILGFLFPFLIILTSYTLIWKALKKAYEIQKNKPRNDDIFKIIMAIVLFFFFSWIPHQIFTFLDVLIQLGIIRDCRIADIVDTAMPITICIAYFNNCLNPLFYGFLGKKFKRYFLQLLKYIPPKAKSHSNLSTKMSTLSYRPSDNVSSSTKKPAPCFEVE

[5] = biological target: T5, 5-hydroxytryptamine receptor 2C (Homo sapiens, UniProt P28335)
T5 sequence (P28335 whole entry): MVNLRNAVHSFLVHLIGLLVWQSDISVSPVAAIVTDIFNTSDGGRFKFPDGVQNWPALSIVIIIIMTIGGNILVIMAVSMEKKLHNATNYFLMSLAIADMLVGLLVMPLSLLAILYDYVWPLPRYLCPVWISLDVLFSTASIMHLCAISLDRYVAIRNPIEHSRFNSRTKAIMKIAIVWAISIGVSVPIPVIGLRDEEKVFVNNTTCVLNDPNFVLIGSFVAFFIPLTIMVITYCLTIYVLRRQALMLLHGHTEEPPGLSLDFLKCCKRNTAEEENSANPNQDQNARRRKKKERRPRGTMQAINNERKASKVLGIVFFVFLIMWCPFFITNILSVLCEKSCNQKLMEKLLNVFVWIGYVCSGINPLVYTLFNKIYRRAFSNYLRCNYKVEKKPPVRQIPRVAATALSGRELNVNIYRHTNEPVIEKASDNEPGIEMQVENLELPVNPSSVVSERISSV

[6] = biological target: T6, Amine oxidase [flavin-containing] A (Homo sapiens, UniProt P21397); type: functional
T6 sequence (P21397 whole entry): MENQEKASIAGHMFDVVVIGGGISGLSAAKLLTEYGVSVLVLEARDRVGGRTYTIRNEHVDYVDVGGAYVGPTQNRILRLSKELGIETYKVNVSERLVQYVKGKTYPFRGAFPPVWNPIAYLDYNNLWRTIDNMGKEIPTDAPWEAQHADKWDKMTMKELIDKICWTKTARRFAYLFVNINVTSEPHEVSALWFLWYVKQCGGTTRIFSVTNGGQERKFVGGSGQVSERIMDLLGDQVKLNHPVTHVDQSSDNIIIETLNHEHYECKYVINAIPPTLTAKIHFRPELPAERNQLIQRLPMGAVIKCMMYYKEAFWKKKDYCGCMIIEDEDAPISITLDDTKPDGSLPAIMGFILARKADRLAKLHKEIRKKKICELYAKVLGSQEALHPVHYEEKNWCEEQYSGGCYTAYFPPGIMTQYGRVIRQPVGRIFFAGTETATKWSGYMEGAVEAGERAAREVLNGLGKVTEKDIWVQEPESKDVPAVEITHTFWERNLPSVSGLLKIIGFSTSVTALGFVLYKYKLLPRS

[7] = biological target: cGMP-inhibited 3',5'-cyclic phosphodiesterase 3A (Homo sapiens, UniProt Q14432); type: functional
Chain of cGMP-inhibited 3',5'-cyclic phosphodiesterase 3A (Q14432 whole entry): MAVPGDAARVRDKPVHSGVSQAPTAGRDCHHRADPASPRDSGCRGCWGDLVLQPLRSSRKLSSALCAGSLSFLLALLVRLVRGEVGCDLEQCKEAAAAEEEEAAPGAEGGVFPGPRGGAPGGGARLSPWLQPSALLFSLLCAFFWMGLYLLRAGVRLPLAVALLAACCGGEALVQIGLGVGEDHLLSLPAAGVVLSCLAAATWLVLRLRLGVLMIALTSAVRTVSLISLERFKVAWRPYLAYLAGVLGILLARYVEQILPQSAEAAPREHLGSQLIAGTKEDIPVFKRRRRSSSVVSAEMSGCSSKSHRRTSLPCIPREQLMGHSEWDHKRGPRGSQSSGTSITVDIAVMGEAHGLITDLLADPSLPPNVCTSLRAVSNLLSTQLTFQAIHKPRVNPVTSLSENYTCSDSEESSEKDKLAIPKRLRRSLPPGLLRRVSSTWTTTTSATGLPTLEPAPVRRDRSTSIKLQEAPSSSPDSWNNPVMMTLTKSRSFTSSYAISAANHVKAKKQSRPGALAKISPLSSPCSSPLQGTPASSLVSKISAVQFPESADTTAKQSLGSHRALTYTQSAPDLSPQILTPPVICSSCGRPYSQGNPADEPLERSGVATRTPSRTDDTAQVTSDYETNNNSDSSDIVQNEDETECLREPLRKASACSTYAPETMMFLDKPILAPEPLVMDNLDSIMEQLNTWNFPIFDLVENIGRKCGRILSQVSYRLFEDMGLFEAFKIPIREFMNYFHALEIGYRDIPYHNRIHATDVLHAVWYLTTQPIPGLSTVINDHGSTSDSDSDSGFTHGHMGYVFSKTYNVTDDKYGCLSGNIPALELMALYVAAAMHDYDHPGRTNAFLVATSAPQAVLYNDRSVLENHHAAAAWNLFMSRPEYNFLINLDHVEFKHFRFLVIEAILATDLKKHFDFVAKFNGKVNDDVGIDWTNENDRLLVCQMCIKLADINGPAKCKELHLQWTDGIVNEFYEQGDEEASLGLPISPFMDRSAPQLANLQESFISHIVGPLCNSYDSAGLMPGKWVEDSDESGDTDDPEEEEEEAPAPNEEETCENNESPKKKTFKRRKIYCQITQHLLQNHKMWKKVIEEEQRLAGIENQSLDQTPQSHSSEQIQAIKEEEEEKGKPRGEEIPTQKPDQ

[8] = biological target: D(3) dopamine receptor (Homo sapiens, UniProt P35462)
Chain of D(3) dopamine receptor (P35462 whole entry): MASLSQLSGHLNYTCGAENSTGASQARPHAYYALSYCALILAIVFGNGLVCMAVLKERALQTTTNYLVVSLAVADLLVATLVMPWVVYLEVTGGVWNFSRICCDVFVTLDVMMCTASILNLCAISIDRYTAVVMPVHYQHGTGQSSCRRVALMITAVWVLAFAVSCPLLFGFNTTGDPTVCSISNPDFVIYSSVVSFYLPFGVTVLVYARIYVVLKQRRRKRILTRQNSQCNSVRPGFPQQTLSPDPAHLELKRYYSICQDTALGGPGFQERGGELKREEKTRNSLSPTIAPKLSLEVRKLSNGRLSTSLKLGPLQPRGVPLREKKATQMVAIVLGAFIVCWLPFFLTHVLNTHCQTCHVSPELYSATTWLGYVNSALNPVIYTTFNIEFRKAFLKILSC
Also: assay procedure not described here.

Row | SMILES | AC50 [1] [µM] | AC50 [2] [µM] | AC50 [3] [µM] | AC50 [4] [µM] | AC50 [5] [µM] | AC50 [6] [µM] | AC50 [7] [µM] | AC50 [8] [µM]
1 | CO/N=C(\C(=O)N[C@@H]1C(=O)N2C(C(=O)[O-])=C(C[N+]3(C)CCCC3)CS[C@H]12)c1csc(N)n1 | > 300 | > 300 | > 300 | > 300 | > 300 | > 300 | > 300 | > 300
2 | COC(=O)N[C@H](C(=O)N1CCC[C@H]1c1nc(-c2ccc(-c3ccc(-c4c[nH]c([C@@H]5CCCN5C(=O)[C@@H](NC(=O)OC)C(C)C)n4)cc3)cc2)c[nH]1)C(C)C | > 30 | > 30 | > 30 | > 30 | > 30 | > 30 | > 30 | > 30
3 | CCOC(=O)[C@H](CCc1ccccc1)N[C@@H](C)C(=O)N1CCC[C@H]1C(=O)O | > 30 | > 30 | > 10 | > 30 | > 10 | > 10 | > 10 | > 10
4 | Nc1nc(N)c2nc(-c3ccccc3)c(N)nc2n1 | > 30 | > 30 | > 30 | > 30 | > 30 | > 30 | > 30 | > 30
5 | C[C@H]1O[C@H](O[C@H]2[C@H](O)[C@@H](O)[C@@H](O[C@H]3[C@H](O)[C@@H](O)C(O)O[C@@H]3CO)O[C@@H]2CO)[C@H](O)[C@@H](O)[C@@H]1N[C@H]1C=C(CO)[C@@H](O)[C@H](O)[C@H]1O (stereo partly drawn) [ACARBOSE] | > 30 | > 30 | > 10 | > 30 | > 30 | > 10 | > 30 | > 10
6 | CC(=O)c1ccc2c(c1)N(CCCN1CCN(CCO)CC1)c1ccccc1S2 [ACETOPHENAZINE] | > 30 | > 30 | 0.72 | > 30 | > 30 | > 30 | > 30 | 0.0044
7 | Oc1ncnc2[nH]ncc12 [ALLOPURINOL] | > 30 | > 30 | > 10 | > 30 | > 30 | > 30 | > 30 | > 10
8 | CC(N)Cc1ccccc1 (stereo not drawn) [AMPHETAMINE] | 18 | > 30 | > 30 | > 30 | > 30 | > 30 | > 30 | > 30
9 | COC(=O)N[C@H](C(=O)N[C@@H](Cc1ccccc1)[C@@H](O)CN(Cc1ccc(-c2ccccn2)cc1)NC(=O)[C@@H](NC(=O)OC)C(C)(C)C)C(C)(C)C [ATAZANAVIR] | > 30 | > 30 | > 10 | > 10 | > 30 | > 10 | > 30 | > 30
10 | CN1CCCC(n2nc(Cc3ccc(Cl)cc3)c3ccccc3c2=O)CC1 (stereo not drawn) [AZELASTINE] | > 30 | > 30 | 2.4 | > 30 |  | > 30 | > 30 | 6.5
11 | CC(C)NCC(O)COc1ccc(COCCOC(C)C)cc1 (stereo not drawn) [BISOPROLOL] | > 30 | > 30 | > 10 | > 30 | > 30 | > 10 | > 30 | > 30
12 | COc1cc(Nc2c(C#N)cnc3cc(OCCCN4CCN(C)CC4)c(OC)cc23)c(Cl)cc1Cl [BOSUTINIB] | > 30 | 10.3 | 1 | > 30 | 7 |  | > 30 | 5.6
13 | N[C@@H](C(=O)N[C@@H]1C(=O)N2C(C(=O)O)=C(Cl)CS[C@H]12)c1ccccc1 [CEFACLOR ANHYDROUS] | > 30 | 24 | > 30 | > 30 | > 10 | > 30 | > 30 | > 30
14 | CCC[C@@H]1C[C@@H](C(=O)N[C@@H]([C@H]2O[C@H](SC)[C@H](O)[C@@H](O)[C@H]2O)[C@H](C)Cl)N(C)C1 [CLINDAMYCIN] | > 30 | > 30 | > 10 | > 30 | > 30 | > 10 | > 30 | > 10
15 | CN(C)CCCN1c2ccccc2CCc2ccc(Cl)cc21 [CLOMIPRAMINE] |  |  |  |  | 0.53 | > 10 |  | 0.3
16 | CC(=O)OCC(=O)[C@@]1(O)CC[C@H]2[C@@H]3CCC4=CC(=O)CC[C@]4(C)[C@H]3C(=O)C[C@@]21C [CORTISONE ACETATE] |  |  | > 30 |  | > 30 | > 30 |  | 
17 | COc1cc2c(cc1OC)C(=O)C(CC1CCN(Cc3ccccc3)CC1)C2 (stereo not drawn) [DONEPEZIL] | > 30 | > 30 | 6.2 | 15.6 | > 30 |  | > 30 | 
18 | CC(C)NNC(=O)c1ccncc1 [IPRONIAZID] | > 30 | > 30 | > 30 | > 30 | > 30 |  | > 30 | > 30
19 | Cc1cccc(C)c1OCC(C)N (stereo not drawn) [MEXILETINE] | > 30 | > 30 | > 30 | > 30 |  | 18 | > 30 | 
20 | CCc1nn(CCCN2CCN(c3cccc(Cl)c3)CC2)c(=O)n1CCOc1ccccc1 [NEFAZODONE] | > 30 | 11.9 | 0.63 | > 30 |  | > 10 | > 10 | 1.2
21 | O=C(NC[C@H]1CN(c2ccc(N3CCOCC3=O)cc2)C(=O)O1)c1ccc(Cl)s1 [RIVAROXABAN] |  | > 30 | > 30 |  | > 30 | > 30 | > 30 | > 30
